For test [1] the following is noted: intracerebroventricular or parenteral administration; cited from earlier work.
The nature of test [2]: Analgesic action on oral administration (mean writhing number; method of JP 62-270555). It is filed as in vivo. To be noted: 200mg/kg.

Results on two molecules are retold here after JPH01254654A, “スルホン酸の誘導体及びその塩” (Dainippon Pharmaceutical Co Ltd, priority 1988, dated 1989).

For `O=C(O)CNC(=O)C(CS)Cc1ccccc1` (racemic) [チオルファン, ((It、L)−2−メルカプトメチル−3−フェニルプロピオニル〕グリシン], the analgesic action entry in test [1] is “鎮痛作用を有する”.

On to `CC(=O)SCC(CC1CN(Cc2ccccc2)CCO1)C(=O)Nc1ccc(S(=O)(=O)[O-])cc1.[Na+]` (centres unmarked) [実施例1], for which, in test [2], the “inhibition rate (analgesic action; (A-B) x 100/A, A: mean writhing number of control group, B: that of test substance group)” value was 61.6 χ.
